# Experimental data reported in patent US12350273B2, “Treatment of SMA” (Hoffmann-La Roche Inc., priority 2017, dated 2025).
# Like-named read-outs stand apart in the source and are kept apart here.
# Columns and labels:
# [1] = Study BP39055 Part 1: pharmacokinetics (AUC0-24h,ss) in SMA patients; assay type: in vivo, human; details: for AUC(0-t): human, in vivo, read-out: estimated AUC0-24h,ss, median
# Text: Study BP39055 is a two-part operationally seamless, multi-center, randomized, placebo-controlled, double-blind study to investigate the safety, tolerability, pharmacokinetics (PK), pharmacodynamics (PD) and efficacy of RO7034067 in Type 2 and 3 spinal muscular atrophy (SMA) patients. The study consists of an exploratory dose-finding part (Part 1) and a confirmatory part (Part 2).
# The primary objective of Part 1 is to evaluate the safety, tolerability, PK and PD of RO7034067 in patients with Type 2 and Type 3 (ambulant or non-ambulant) SMA, and to select the dose for Part 2 of the study.
# Part 1 was a double-blinded, placebo-controlled, randomized (2:1 RO7034067:placebo), exploratory dose-finding study in Type 2 and Type 3 (ambulant and non-ambulant) SMA patients. This will be followed by an open-label extension (OLE) at the same dose as selected for Part 2 of the study.
# Part 1 of the study enrolled patients in two age groups: • Group A: adolescent and adult patients aged 12 25 years • Group B: children aged 2 11 years RO7034067 dose levels were investigated in a staggered, dose escalation manner in both age groups.
# The dose recommended by the IMC for this age group according to the target AUC0-24 h,ss of 700 ng[…]h/mL was 0.02 mg/kg (see IMC recommendation of 12 Dec. 2016 in Appendix 1); 10 patients aged 3-11 years were enrolled in Cohort B1. • At the same time point (i.e., once safety and tolerability were confirmed based on the review of at least 4 weeks of treatment at 3 mg once daily in 9 patients in Cohort A1), enrolment was opened to another cohort of 9 adult and adolescent patients (Cohort A2) receiving RO7034067 5 mg once daily (see IMC recommendation of 19 Jan. 2017 in Appendix 1). As per protocol, the higher dose level was determined such as to achieve maximum SMN protein increase, without exceeding the exposure cap (Cmax 400 ng/mL; mean AUC0 24 h,ss 2000 ng[…]h/mL); 10 patients aged 13[…]24 years were enrolled in Cohort A2. • Based on the review of a minimum of 4 weeks of treatment at 0.02 mg/kg in 9 patients enrolled in Cohort B1, the following recommendations were made by the IMC: i) to increase the dose in these patients to 0.05 mg/kg without exceeding a cap dose of 3 mg, and ii) to enroll a minimum of 9 additional patients aged 2[…]11 years at a dose of 0.05 mg/kg without exceeding a cap dose of 3 mg (Cohort B2), targeting at least 5 patients aged 2[…]6 years (see IMC recommendation of 13 Mar. […] At the same time point, enrollment was opened to another cohort of 9 patients at the dose of 0.25 mg/kg without exceeding a cap dose of 5 mg (Cohort B3), determined such as to achieve maximum Survival of Motor Neuron (SMN) protein increase, without exceeding the exposure cap (Cmax 400 ng/mL; mean AUC0-24 h,ss 2000 ng[…]h/mL); 10 patients aged 2[…]11 years were enrolled in Cohort B3. • Upon completion of at least 12 weeks of placebo-controlled treatment by a minimum of 9 patients of each cohort, the IMC reviewed all available data from the cohort to make the decision to switch placebo patients to active treatment at the dose tested in their respective cohort. Dates of the IMC decisions to switch placebo patients to active treatment in the respective cohorts are provided in Section 1.3. • For the last cohort in Part 1 (Cohort B3), all available safety, tolerability, PK and PD data following completion of a minimum of 4 weeks treatment by the 9th patient (including all available data for the 10th patient of the last cohort who was enrolled approximately 1 week after the 9th patient, and all available data from all previous cohorts) were reviewed by the IMC in order to select the dose to be administered in Part 2 of the study. This dose selection was confirmed by the external iDMC following review of the same data package. […]
# human RPE cells = assay: Lysosomal function in human RPE cells in vitro; assay type: cell-based
# [2] = 39-week monkey toxicity study: toxicokinetics in plasma; assay type: in vivo, cynomolgus monkeys (Macaca fascicularis); details: for AUC(0-t) / Cmax: cynomolgus monkey, plasma
# Procedure: Blood samples for toxicokinetics (nominally 0.5 mL) were taken from all test article-treated animals on Days 1, 12 (Week 2), 26 (Group 4 only), 57 (Week 9), 92 (Week 14), 180 (Week 26) and 267 (Week 39) of the dosing phase at the following time points: • 0 (predose), 1, 3, 7 and 24 hours postdose
# An additional sample was taken at 72 hours postdose on Day 12 (i.e. Day 15) from all Group 4 animals.
# Samples were taken from the femoral vein/artery. Each blood sample was mixed gently by hand then placed on crushed wet ice until centrifugation at 2300 g for 10 minutes at approximately 4° C. The resultant plasma was separated, split into two uniquely labelled clear polypropylene tubes and frozen at <−50° C. (nominally −80° C.). One sample was transported frozen on dry ice to the Principal Investigator for analysis, and the other was retained at Covance.
# [3] = 39-week monkey toxicity study: retina effects (ERG, sdOCT, histopathology), NOAEL; details: cynomolgus monkey; for AUC(0-t): plasma
# Melanin binding in vitro = assay type: in vitro ADME
compound,measurement,setting,value
"Cc1cn2nc(-c3cc(=O)n4cc(N5CCNC6(CC6)C5)ccc4n3)cc(C)c2n1 [RO7034067, 7-(4,7-diazaspiro[2.5]octan-7-yl)-2-(2,8-dimethylimidazo[1,2-b]pyridazin-6-yl)pyrido[1,2-a]pyrimidin-4-one]",AUC(0-t),"[1]; 2-11 yr, 0.02 mg/kg",133 ng·h/mL
same,AUC(0-t),"[1]; 2-11 yr, 0.05 mg/kg",407 ng·h/mL
same,AUC(0-t),"[1]; 2-11 yr, 0.15 mg/kg",822 ng·h/mL
same,AUC(0-t),"[1]; 2-11 yr, 0.25 mg/kg",1450 ng·h/mL
same,AUC(0-t),"[1]; 12-25 yr, 3 mg",1040 ng·h/mL
same,AUC(0-t),"[1]; 12-25 yr, 5 mg",1610 ng·h/mL
same,"predicted mean exposure (AUC0-24h,ss)","[1]; selected BP39055 Part 2 dose, all patients 2-25 years of age",1690 ng·h/mL
same,effect on human RPE cells,human RPE cells,Impairment of lysosomal function/autophagosomal accumulation
same,gender differences for AUC(0-24h) or Cmax,"[2]; any dose level, 39-week dosing phase",no relevant gender differences
same,dose dependence of AUC(0-24h),[2]; between 1.5 and 5 mg/kg/day on each evaluation day,roughly dose-proportional increase
same,AUC(0-t),"[2]; female, Day 12, 7.5 mg/kg/day oral, read-out: AUC(0-24h), female (mean)",10200 ng·h/mL
same,Cmax,"[2]; female, Day 12, 7.5 mg/kg/day oral, read-out: Cmax, female (mean)",1070 ng/mL
same,Cmax,"[2]; female, Day 267 (Week 39), 1.5 mg/kg/day oral, read-out: Cmax, female (mean)",396 ng/mL
same,AUC(0-t),"[2]; female, Day 267, 1.5 mg/kg/day oral, read-out: AUC(0-24h), female (mean)",2060 ng·h/mL
same,AUC(0-t),"[2]; female, Day 267, 3 mg/kg/day oral, read-out: AUC(0-24h), female (mean)",4850 ng·h/mL
same,Cmax,"[2]; female, Day 267, 3 mg/kg/day oral, read-out: Cmax, female (mean)",973 ng/mL
same,AUC(0-t),"[2]; female, Day 267, 5 mg/kg/day oral (Group 4, 7.5/5), read-out: AUC(0-24h), female (mean)",6470 ng·h/mL
same,Cmax,"[2]; female, Day 267, 5 mg/kg/day oral (Group 4, 7.5/5), read-out: Cmax, female (mean)",1160 ng/mL
same,AUC(0-t),"[2]; male, Day 12, 7.5 mg/kg/day oral, read-out: AUC(0-24h), male (mean)",11200 ng·h/mL
same,Cmax,"[2]; male, Day 12, 7.5 mg/kg/day oral, read-out: Cmax, male (mean)",1020 ng/mL
same,Cmax,"[2]; male, Day 267 (Week 39), 1.5 mg/kg/day oral, read-out: Cmax, male (mean)",414 ng/mL
same,AUC(0-t),"[2]; male, Day 267, 1.5 mg/kg/day oral, read-out: AUC(0-24h), male (mean)",1870 ng·h/mL
same,AUC(0-t),"[2]; male, Day 267, 3 mg/kg/day oral, read-out: AUC(0-24h), male (mean)",4880 ng·h/mL
same,Cmax,"[2]; male, Day 267, 3 mg/kg/day oral, read-out: Cmax, male (mean)",1000 ng/mL
same,AUC(0-t),"[2]; male, Day 267, 5 mg/kg/day oral (Group 4, 7.5/5), read-out: AUC(0-24h), male (mean)",5880 ng·h/mL
same,Cmax,"[2]; male, Day 267, 5 mg/kg/day oral (Group 4, 7.5/5), read-out: Cmax, male (mean)",701 ng/mL
same,NOAEL at 39 weeks,"[3]; both, in vivo, po",1.5 mg/kg/day
same,AUC(0-t),[3]; oral,4260 ng·h/mL
same,AUC(0-t),"[3]; female, po, 3 mg/kg/day",4850 ng·h/mL
same,AUC(0-t),"[3]; female, po, 5 mg/kg/day",6470 ng·h/mL
same,AUC(0-t),"[3]; male, po, 3 mg/kg/day",4880 ng·h/mL
same,AUC(0-t),"[3]; male, po, 5 mg/kg/day",5880 ng·h/mL
same,melanin binding,Melanin binding in vitro,high melanin binding
